For 22 compounds, inhibition results are on record in US8906925B2, “Pyrido[4,3-B]indoles containing rigid moieties” (Medivation Technologies, Inc., priority 2008, dated 2014).

Assay [1] deals with human dopamine D2L receptor (Homo sapiens, UniProt P14416). Description: Dopamine D2L radioligand binding ([3H]Spiperone). The following applies: compound at 1 μM. The text has this: Non-specific binding was estimated in the presence of […] Haloperidol. Receptor proteins were filtered and washed, the filters were then counted to determine [^3H]Spiperone specifically bound. […] Biochemical assay results are presented as the percent inhibition of specific binding in Table 9.

The target in a further assay is histamine receptor H1 (Homo sapiens, UniProt P35367). Briefly: Histamine H1 radioligand binding ([3H]Pyrilamine). The conditions noted are these: read-out: Histamine Binding (1 μM) H1, percent inhibition of specific binding, 1 μM. On the procedure:
To evaluate in radioligand binding assays the activity of compounds of the invention, human recombinant histamine H1 receptor expressed in Chinese hamster ovary (CHO) cells (De Backer, M. D. et al., Biochem. Biophys. Res. Comm. 197(3):1601, 1993) in a modified Tris-HCl buffer (50 mM Tris-HCl, pH 7.4, 2 mM MgCl2, 100 mM NaCl, 250 mM Sucrose) was used. Compounds of the invention were incubated with 1.2 nM [^3H]Pyrilamine for 180 min. at 25° C. Non-specific binding was estimated in the presence of 1 μM pyrilamine. Receptor proteins were filtered and washed, the filters were then counted to determine [^3H]Pyrilamine specifically bound. Compounds were screened at 1 μM or lower, using 1% DMSO as vehicle. Biochemical assay results are presented as the percent inhibition of specific binding in Table 8.

The mark [2] stands for this setting: […] [3H]Spiperone, read-out: Inhibition of ligand binding, Dopamine D2L (percent inhibition of specific binding).
The mark [3] stands for this setting: percent inhibition of specific binding, read-out: Inhibition of ligand binding, Dopamine D2L.

Like-named read-outs stand apart in the source and are kept apart here.

Sequence of human dopamine D2L receptor (P14416 whole entry): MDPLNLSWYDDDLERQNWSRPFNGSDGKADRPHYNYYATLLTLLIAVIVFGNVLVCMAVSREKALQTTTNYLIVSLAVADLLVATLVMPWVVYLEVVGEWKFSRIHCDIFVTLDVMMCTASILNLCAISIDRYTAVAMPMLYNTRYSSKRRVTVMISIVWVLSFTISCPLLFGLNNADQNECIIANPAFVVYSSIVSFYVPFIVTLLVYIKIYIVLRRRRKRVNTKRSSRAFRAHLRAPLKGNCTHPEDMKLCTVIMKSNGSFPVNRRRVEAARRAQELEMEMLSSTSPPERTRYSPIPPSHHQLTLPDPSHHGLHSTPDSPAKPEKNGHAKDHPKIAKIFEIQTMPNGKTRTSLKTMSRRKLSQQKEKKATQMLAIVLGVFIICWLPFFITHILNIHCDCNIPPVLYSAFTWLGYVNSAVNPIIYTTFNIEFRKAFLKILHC
Sequence of histamine receptor H1 (P35367 whole entry): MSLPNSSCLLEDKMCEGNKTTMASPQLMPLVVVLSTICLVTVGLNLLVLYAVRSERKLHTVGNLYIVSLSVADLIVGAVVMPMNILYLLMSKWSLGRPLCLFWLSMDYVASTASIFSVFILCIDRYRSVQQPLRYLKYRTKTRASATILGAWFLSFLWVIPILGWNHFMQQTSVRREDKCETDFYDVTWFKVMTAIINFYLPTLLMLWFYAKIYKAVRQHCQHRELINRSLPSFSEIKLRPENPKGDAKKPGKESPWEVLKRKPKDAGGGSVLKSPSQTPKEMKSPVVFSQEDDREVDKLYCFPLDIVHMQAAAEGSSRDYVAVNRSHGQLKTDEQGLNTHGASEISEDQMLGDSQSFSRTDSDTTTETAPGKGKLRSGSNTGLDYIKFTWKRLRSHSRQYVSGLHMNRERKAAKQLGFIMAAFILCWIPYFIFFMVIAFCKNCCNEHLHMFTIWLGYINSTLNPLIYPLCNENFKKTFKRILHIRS

Take `C/C(=C\n1c2c(c3cc(N(C)C)ccc31)CN(C)CC2)c1ccc(F)cc1` [compound 442, (E)-5-(2-(4-fluorophenyl)prop-1-enyl)-N,N,2-trimethyl-2,3,4,5-tetrahydro-1H-pyrido[4,3-b]indol-8-amine]: the inhibition (commonly the change of the read-out against control, counted positive when it falls) at 1 µM in assay [1] (setting [2]) was 77%; on histamine receptor H1, 29%.

Regarding `C/C(=C\n1c2c(c3cc(Cl)ccc31)CN(C)CC2)c1ccncn1` [Compound 289, (E)-8-chloro-2-methyl-5-(2-(pyrimidin-4-yl)prop-1-enyl)-2,3,4,5-tetrahydro-1H-pyrido[4,3-b]indole], the figures for the inhibition at 1 µM (in assay [1] (setting [3]); at histamine receptor H1) were 90% and 34%, respectively.

Regarding `C/C(=C\n1c2c(c3cc(C)ccc31)CN(CCc1ccccc1)CC2)c1ccncc1` [compound 412, (E)-8-methyl-2-phenethyl-5-(2-(pyridin-4-yl)prop-1-enyl)-2,3,4,5-tetrahydro-1H-pyrido[4,3-b]indole], the figures for the inhibition at 1 µM (in assay [1] (setting [2]); on histamine receptor H1) were 94% and 27%, respectively.

`CSc1ccc(/C(C)=C/n2c3c(c4cc(C)ccc42)CN(C)CC3)cc1` [Compound No. 459, (E)-2,8-dimethyl-5-(2-(4-(methylthio)phenyl)prop-1-enyl)-2,3,4,5-tetrahydro-1H-pyrido[4,3-b]indole]: the inhibition at 1 µM in assay [1] (setting [2]) came out at 71%; on histamine receptor H1, 53%.

Regarding `C/C(=C\n1c2c(c3cc(C)ccc31)CN(C)CC2)c1ccc(S(C)(=O)=O)cc1` [Compound No. 462, (E)-2,8-dimethyl-5-(2-(4-(methylsulfonyl)phenyl)prop-1-enyl)-2,3,4,5-tetrahydro-1H-pyrido[4,3-b]indole], the inhibition at 1 µM in assay [1] (setting [2]) came out at 76%; at histamine receptor H1, 32%.

For `CN1CCc2c(c3cc(Cl)ccc3n2/C=C(/c2ccncc2)C(C)(C)C)C1` [Compound No. 286, (E)-8-chloro-5-(3,3-dimethyl-2-(pyridin-4-yl)but-1-enyl)-2-methyl-2,3,4,5-tetrahydro-1H-pyrido[4,3-b]indole], the results for the inhibition at 1 µM (in assay [1] (setting [3]); at histamine receptor H1) were 23% and 19%, respectively.

`Cc1ccc2c(c1)c1c(n2/C(=C(/F)c2ccncc2)c2ccncc2)CCN(C)C1` [compound 425, (E)-5-(2-fluoro-1,2-di(pyridin-4-yl)vinyl)-2,8-dimethyl-2,3,4,5-tetrahydro-1H-pyrido[4,3-b]indole]: the inhibition at 1 µM in assay [1] (setting [2]) was 6%; on histamine receptor H1 it was 4%.

As for `C/C(=C\n1c2c(c3cc(NC4CCC4)ccc31)CN(C)CC2)c1ccncc1` [compound 448, (E)-N-cyclobutyl-2-methyl-5-(2-(pyridin-4-yl)prop-1-enyl)-2,3,4,5-tetrahydro-1H-pyrido[4,3-b]indol-8-amine], the inhibition at 1 µM was 79% in assay [1] (setting [2]) and -10% at histamine receptor H1.

On to `Cc1ccc2c(c1)c1c(n2C(C)(C)C(O)c2ccccc2)CCN(C)C1` (centres unmarked) [Compound No. 467, 2-(2,8-dimethyl-3,4-dihydro-1H-pyrido[4,3-b]indol-5(2H)-yl)-2-methyl-1-phenylpropan-1-ol], for which the inhibition at 1 µM worked out at 7% in assay [1] (setting [2]) and 54% at histamine receptor H1.

`C/C(=C\n1c2c(c3cc(C)ccc31)CN(C)[C@@H](C)C2)c1ccncc1` [compound 389, (S,E)-2,3,8-trimethyl-5-(2-(pyridin-4-yl)prop-1-enyl)-2,3,4,5-tetrahydro-1H-pyrido[4,3-b]indole]: the inhibition at 1 µM came out at 49% in assay [1] (setting [2]) and 39% on histamine receptor H1.

On to `C/C(=C\n1c2c(c3cc(C)ccc31)CN(C)CC2)c1cnccn1` [Compound 287, (E)-2,8-dimethyl-5-(2-(pyrazin-2-yl)prop-1-enyl)-2,3,4,5-tetrahydro-1H-pyrido[4,3-b]indole], for which the values for the inhibition at 1 µM (in assay [1] (setting [3]); at histamine receptor H1) were 72% and 33%, respectively.

For `COc1cccc2c3c(n(CC(C)(O)c4ccncc4)c12)CCN(C)C3` (centres unmarked) [Compound 343, 1-(6-methoxy-2-methyl-3,4-dihydro-1H-pyrido[4,3-b]indol-5(2H)-yl)-2-(pyridin-4-yl)propan-2-ol], the figures for the inhibition at 1 µM (in assay [1] (setting [3]); at histamine receptor H1) were 9% and 22%, respectively.

On to `C/C(=C\n1c2c(c3cc(NC4CC4)ccc31)CN(C)CC2)c1ccncc1` [compound 447, (E)-N-cyclopropyl-2-methyl-5-(2-(pyridin-4-yl)prop-1-enyl)-2,3,4,5-tetrahydro-1H-pyrido[4,3-b]indol-8-amine], for which the inhibition at 1 µM is 59% in assay [1] (setting [2]) and -1% on histamine receptor H1.

Consider `C/C(=C\n1c2c(c3cc(NCCO)ccc31)CN(C)CC2)c1ccncc1` [compound 449, (E)-2-(2-methyl-5-(2-(pyridin-4-yl)prop-1-enyl)-2,3,4,5-tetrahydro-1H-pyrido[4,3-b]indol-8-ylamino)ethanol], for which the inhibition at 1 µM was 59% in assay [1] (setting [2]) and -7% on histamine receptor H1.

For `CC(C)c1ccc2c3c(n(CC(C)(O)c4ccncc4)c2c1)CCN(C)C3` (centres unmarked) [Compound 344, 1-(7-isopropyl-2-methyl-3,4-dihydro-1H-pyrido[4,3-b]indol-5(2H)-yl)-2-(pyridin-4-yl)propan-2-ol], the inhibition at 1 µM in assay [1] (setting [3]) is 10%; at histamine receptor H1, 7%.

For the compound `Cc1ccc2c(c1)c1c(n2/C=C(\F)c2cccs2)CCN(C)C1` [compound 451], the inhibition at 1 µM was 70% in assay [1] (setting [2]) and 99% on histamine receptor H1.

As for `C=C(Cn1c2c(c3cccc(F)c31)CN(C)CC2)c1ccncc1` [Compound No. 363, 6-fluoro-2-methyl-5-(2-(pyridin-4-yl)allyl)-2,3,4,5-tetrahydro-1H-pyrido[4,3-b]indole], the figures for the inhibition at 1 µM (in assay [1] (setting [2]); at histamine receptor H1) were 53% and 62%, respectively.

Turning to `C/C(=C\n1c2c(c3cc(Cl)ccc31)CN(C)CC2)c1cnc(C)cn1` [compound 385, (E)-8-chloro-2-methyl-5-(2-(5-methylpyrazin-2-yl)prop-1-enyl)-2,3,4,5-tetrahydro-1H-pyrido[4,3-b]indole], the inhibition at 1 µM in assay [1] (setting [2]) is 51%; on histamine receptor H1, 68%.

For `CO/C(=C\n1c2c(c3cc(C)ccc31)CN(C)CC2)c1ccncc1` [compound 413, (Z)-5-(2-methoxy-2-(pyridin-4-yl)vinyl)-2,8-dimethyl-2,3,4,5-tetrahydro-1H-pyrido[4,3-b]indole], the inhibition at 1 µM came to 60% in assay [1] (setting [2]) and 16% on histamine receptor H1.

`C/C(=C\n1c2c(c3cc(C)ccc31)CN(CCO)CC2)c1ccncc1` [Compound 332, (E)-2-(8-methyl-5-(2-(pyridin-4-yl)prop-1-enyl)-3,4-dihydro-1H-pyrido[4,3-b]indol-2(5H)-yl)ethanol]: the figures for the inhibition at 1 µM (in assay [1] (setting [3]); at histamine receptor H1) were 79% and 23%, respectively.

On to `CC(=O)CN1CCc2c(c3cc(C)ccc3n2/C=C(\C)c2ccncc2)C1` [compound 427, (E)-1-(8-methyl-5-(2-(pyridin-4-yl)prop-1-enyl)-3,4-dihydro-1H-pyrido[4,3-b]indol-2(5H)-yl)propan-2-one], for which the inhibition at 1 µM worked out at 17% in assay [1] (setting [2]) and 1% on histamine receptor H1.

As to `C/C(=C\n1c2c(c3cc(C)ccc31)CN(CCCO)CC2)c1ccncc1` [Compound 288, (E)-3-(8-methyl-5-(2-(pyridin-4-yl)prop-1-enyl)-3,4-dihydro-1H-pyrido[4,3-b]indol-2(5H)-yl)propan-1-ol], the results for the inhibition at 1 µM (in assay [1] (setting [3]); on histamine receptor H1) were 92% and 25%, respectively.
